Test results: patent publication EP0178388A1, “Quinolinecarboxylic acid derivatives” (KYORIN PHARMACEUTICAL CO., LTD., priority 1984, dated 1986)
Converted amounts (≈) assume the structure as drawn. Structures can show the parent of a compound that is named as a salt.

Legend:
B. distasonis 8503 = experiment: In vitro antibacterial activity, MIC (standard strain); assay type: cell-based; conditions: Parabacteroides distasonis, B. distasonis 8503, 10^6 cells/ml
C. ramosum = experiment: as above; assay type: cell-based; conditions: Thomasclavelia ramosa; C. ramosum, 10^6 cells/ml, standard strain; read-out: MIC
P. aeruginosa IID 1210 = experiment: In vivo antibacterial activity against systemic infection in mice;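 note: ED50 in mg/kg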; parameters: species or system mice (ICR-S); conditions: Pseudomonas aeruginosa, IID1210; P. aeruginosa IID 1210, mice (ICR-S), intraperitoneal infection, oral at 1 hour after infection, challenge dose 2.5 x 10^5 cfu/mouse; read-out: ED50
Procedure: Experiment 2 In vivo antibacterial activity against systemic infection in mice (ICR-S)
The infections were produced by intraperitoneal infection of a suspension of the bacterial culture corresponding to the germ studied. The product was administered orally at 1 hour after the infection. The 50% effective dose (ED50) which protects 50% of the animals from death caused by the infection was determined from the relation between dosage and survival rate.

[1] = tested on: Fusobacterium necrophorum S-45; experiment: In vitro antibacterial activity, MIC (standard strain); assay type: cell-based; conditions: S45, Fusobacterium necrophorum S-45, 10^6 cells/ml
[2] = tested on: Eubacterium lentum GAI 5242; experiment: as above; assay type: cell-based; conditions: Eggerthella lenta, GAI5242, Eubacterium lentum GAI 5242, 10^6 cells/ml

Row | Structure (SMILES) | MIC (B. distasonis 8503) | MIC (C. ramosum) | ED50 (P. aeruginosa IID 1210) | MIC [1] | MIC [2]
1 | CC1CN(c2c(F)cc3c(=O)c(C(=O)O)cn(C4CC4)c3c2F)CCN1 (stereo not drawn) [Example 2, l-Cyclopropyl-6,8-difluoro-l,4-dihydro-7-(3-methyl-l-piperazinyl)-4-oxoquinoline-3-carboxylic acid] | 1.56 µg/mL (≈ 4.29 µM) |  |  |  | 
2 | CC1CN(c2c(F)cc3c(=O)c(C(=O)O)cn(C4CC4)c3c2Cl)CCN1 (stereo not drawn) [Example 5, 8-Chloro-l-cyclopropyl-6-fluoro-1,4-dihydro-7-(3-methyl-1-piperazinyl)-4-oxoquinoline-3-carboxylic acid hydrochloride] |  | 3.13 µg/mL | 3.2 mg/kg | 0.39 µg/mL | 0.39 µg/mL
